These results are taken from ChEMBL document CHEMBL4351016 (Eur J Med Chem, 2019).

By GI50 is commonly meant the concentration at which growth is held to half of that of the control.

Assay [1] concerns CWR22R. Put plainly: Antiproliferative activity against AR-positive human 22Rv1 cells harboring ARE14 construct assessed as growth inhibition after 24 hrs by resazurin dye based fluorescence assay. It counts as functional. To be noted: 22Rv1, 24 h.
Assay [2] has as its system CWR22R. As to the kind of experiment: Effect on AR-V7 protein expression in AR-positive human 22Rv1 cells harboring ARE14 construct at 5 uM after 24 hrs by immunoblot analysis. The class given is functional, cell-based. (In general: A western blot detects proteins with antibodies after separation by electrophoresis.)
The next assay relates to BJ. Put plainly: Antiproliferative activity against human BJ cells assessed as growth inhibition after 24 hrs by resazurin dye based fluorescence assay. It counts as functional. (In general: Alamar Blue is a resazurin reagent that responds to reducing activity.)
Assay [3] has as its system CWR22R. Put plainly: Antiproliferative activity against AR-positive human 22Rv1 cells harboring ARE14 construct assessed as growth inhibition after 72 hrs by resazurin dye based fluorescence assay. The class given is functional. The following applies: 22Rv1, 72 h.
In assay [4] the target is T1, Androgen receptor (Homo sapiens) (UniProt P10275).
T1 sequence (whole entry): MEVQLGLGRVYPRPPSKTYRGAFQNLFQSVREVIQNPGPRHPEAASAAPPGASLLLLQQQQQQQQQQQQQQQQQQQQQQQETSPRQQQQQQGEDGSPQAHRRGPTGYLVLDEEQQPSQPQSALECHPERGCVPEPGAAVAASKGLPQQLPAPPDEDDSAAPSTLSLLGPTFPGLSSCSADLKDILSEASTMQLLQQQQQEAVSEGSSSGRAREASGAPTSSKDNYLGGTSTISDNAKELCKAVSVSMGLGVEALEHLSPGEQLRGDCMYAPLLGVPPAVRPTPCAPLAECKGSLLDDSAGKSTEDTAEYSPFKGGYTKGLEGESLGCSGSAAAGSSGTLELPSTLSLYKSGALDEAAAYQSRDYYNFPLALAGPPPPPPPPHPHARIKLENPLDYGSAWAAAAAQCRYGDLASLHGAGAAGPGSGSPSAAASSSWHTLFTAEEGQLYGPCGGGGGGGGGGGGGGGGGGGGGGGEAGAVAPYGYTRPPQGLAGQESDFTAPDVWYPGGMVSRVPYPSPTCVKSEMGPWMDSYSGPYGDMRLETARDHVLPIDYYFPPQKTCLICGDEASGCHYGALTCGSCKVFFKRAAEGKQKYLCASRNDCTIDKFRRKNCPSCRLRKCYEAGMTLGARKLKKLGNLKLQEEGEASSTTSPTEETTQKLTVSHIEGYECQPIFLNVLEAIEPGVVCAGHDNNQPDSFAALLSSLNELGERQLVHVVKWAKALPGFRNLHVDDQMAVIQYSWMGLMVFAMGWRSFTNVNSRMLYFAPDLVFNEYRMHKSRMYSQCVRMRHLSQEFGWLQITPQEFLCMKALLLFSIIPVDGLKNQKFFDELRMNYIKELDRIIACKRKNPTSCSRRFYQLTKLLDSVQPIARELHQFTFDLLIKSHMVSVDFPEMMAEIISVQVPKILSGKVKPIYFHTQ
Put plainly: Inhibition of AR transcriptional activity in AR-positive human 22Rv1 cells harboring ARE14 construct assessed as downregulation of NKX3.1 protein expression at 5 uM after 24 hrs by immunoblot analysis.

The next assay concerns VCaP. As to the kind of experiment: Antiproliferative activity against AR-positive human VCaP cells assessed as growth inhibition after 72 hrs by resazurin dye based fluorescence assay. It counts as functional.
For assay [5], the target named is T1, Androgen receptor (Homo sapiens). Put plainly: Inhibition of AR transcriptional activity in AR-positive human 22Rv1 cells harboring ARE14 construct assessed as decrease in PSA protein expression at 5 uM after 24 hrs by immunoblot analysis.
For another assay, the system named is LNCaP C4-2. As to the kind of experiment: Antiproliferative activity against AR-positive human C4-2 cells assessed as growth inhibition after 72 hrs by resazurin dye based fluorescence assay. It counts as functional. To be noted: LNCaP C4-2, 72 h.
In another assay the test system is PC-3. As to the kind of experiment: Antiproliferative activity against AR-negative human PC3 cells assessed as growth inhibition after 72 hrs by resazurin dye based fluorescence assay. It counts as functional. To be noted: PC-3, 72 h.

The source made the active and inactive calls. No cut-off for these calls is given here.

For `CC(=O)O[C@H]1CC[C@@]2(C)C(=CC[C@@H]3[C@@H]2CC[C@@]2(C)[C@H]3C[C@@H]3C(=O)[C@@]2(C)Nc2nc4ccccc4n23)C1`, the GI50 is greater than 50 µM in the assay with CWR22R [1]; greater than 50 µM with BJ; 5.4 µM with CWR22R [3]; greater than 50 µM in the assay on VCaP; 18 µM in the assay on LNCaP C4-2; greater than 50 µM in the assay on PC-3. In the assay with CWR22R [2], the outcome was inactive. Moreover, the “NKX3.1 protein downregulation (active/not active)” value in assay [4] is “inactive”. Besides, in assay [5], the “PSA protein decrease (active/not active)” value is “inactive”.
As to `CC(=O)O[C@H]1CC[C@@]2(C)C(=CC[C@@H]3[C@@H]2CC[C@]2(C)c4c(C)nc5nc6ccc(Cl)cc6n5c4C[C@@H]32)C1`, the GI50 in the assay with CWR22R [1] was greater than 50 µM; in the assay with BJ, 50 µM; with CWR22R [3], 29.9 µM; with VCaP, greater than 50 µM; with LNCaP C4-2, 24.4 µM; in the assay with PC-3, greater than 50 µM. Further, the result in the assay on CWR22R [2] was inactive. In addition, the “NKX3.1 protein downregulation (active/not active)” value in assay [4] is “inactive”. In addition, the “PSA protein decrease (active/not active)” value in assay [5] was “inactive”.
As for `C[C@]12CC[C@H](O)CC1=CC[C@@H]1[C@@H]2CC[C@]2(C)/C(=N/n3cnc4ccccc43)CC[C@@H]12`, the GI50 in the assay on CWR22R [1] was greater than 50 µM; in the assay with BJ it was greater than 50 µM; in the assay with CWR22R [3], greater than 50 µM; with VCaP it was greater than 50 µM; in the assay with LNCaP C4-2, greater than 50 µM; with PC-3, 11.5 µM. Further, in the assay on CWR22R [2], the result was inactive. Moreover, in assay [4], the “NKX3.1 protein downregulation (active/not active)” value is “inactive”. In assay [5], the “PSA protein decrease (active/not active)” value was “inactive”.
In the case of `COc1ccc2c(C)c3c(nc2n1)C[C@H]1[C@@H]2CC=C4C[C@@H](O)CC[C@]4(C)[C@H]2CC[C@]31C`, the GI50 in the assay on CWR22R [1] was greater than 50 µM; in the assay with BJ, greater than 50 µM; in the assay on CWR22R [3], 4.3 µM; in the assay with VCaP, greater than 50 µM; in the assay on LNCaP C4-2 it was 1.1 µM; in the assay with PC-3, greater than 50 µM. Besides, the outcome in the assay on CWR22R [2] was inactive. Further, the “NKX3.1 protein downregulation (active/not active)” value in assay [4] is “Active”. In addition, the “PSA protein decrease (active/not active)” value in [5] was “Active”.
For the molecule `CC(=O)O[C@H]1CC[C@@]2(C)C(=CC[C@@H]3[C@@H]2CC[C@]2(C)c4c(C)nc5nc6ccccc6n5c4C[C@@H]32)C1`, the GI50 with CWR22R [1] was greater than 50 µM; with BJ it was 44.9 µM; with CWR22R [3], 7.2 µM; with VCaP, greater than 50 µM; in the assay on LNCaP C4-2 it was 22.5 µM; in the assay with PC-3 it was greater than 50 µM. Moreover, the outcome with CWR22R [2] was inactive. Moreover, the “NKX3.1 protein downregulation (active/not active)” value in assay [4] is “inactive”. Also, the “PSA protein decrease (active/not active)” value in [5] was “inactive”.
Turning to `CC(=O)O[C@H]1CC[C@@]2(C)C(=CC[C@@H]3[C@@H]2CC[C@]2(C)c4c(C)nc5nccn5c4C[C@@H]32)C1`, the GI50 is greater than 50 µM in the assay on CWR22R [1]; greater than 50 µM in the assay with BJ; 26.3 µM in the assay with CWR22R [3]; greater than 50 µM in the assay with VCaP; greater than 50 µM in the assay with LNCaP C4-2; greater than 50 µM in the assay on PC-3. In the assay with CWR22R [2], the outcome was inactive. In [4], the “NKX3.1 protein downregulation (active/not active)” value was “inactive”. Further, the “PSA protein decrease (active/not active)” value in assay [5] is “inactive”.
As for `CC(=O)O[C@H]1CC[C@@]2(C)C(=CC[C@@H]3[C@@H]2CC[C@@]2(C)[C@H]3C[C@@H]3C(=O)[C@@]2(C)Nc2nc4cc(C)c(C)cc4n23)C1`, the 50% growth inhibitory concentration (GI50) is greater than 50 µM in the assay on CWR22R [1]; greater than 50 µM in the assay on BJ; 7.4 µM in the assay with CWR22R [3]; greater than 50 µM with VCaP; greater than 50 µM in the assay with LNCaP C4-2; greater than 50 µM in the assay with PC-3. For the same molecule, the outcome in the assay with CWR22R [2] was inactive. Further, the “NKX3.1 protein downregulation (active/not active)” value in assay [4] was “inactive”. Also, the “PSA protein decrease (active/not active)” value in [5] is “inactive”.
On to `Cc1nc(N2CCc3ccccc3C2)nc2c1[C@@]1(C)CC[C@H]3[C@@H](CC=C4C[C@@H](O)CC[C@@]43C)[C@@H]1C2`, for which the GI50 is greater than 50 µM with CWR22R [1]; 22.5 µM in the assay on BJ; 12.4 µM with CWR22R [3]; 20.7 µM with VCaP; 12.7 µM in the assay on LNCaP C4-2; 7.8 µM in the assay with PC-3. For the same molecule, the result in the assay on CWR22R [2] was inactive. Besides, the “NKX3.1 protein downregulation (active/not active)” value in assay [4] is “Active”.
`CC(=O)O[C@H]1CC[C@@]2(C)C(=CC[C@@H]3[C@@H]2CC[C@]2(C)c4c(C)nc5nc6cc(Cl)ccc6n5c4C[C@@H]32)C1`: the GI50 in the assay with CWR22R [1], in the assay on BJ, with CWR22R [3], in the assay with VCaP, in the assay on LNCaP C4-2 and in the assay with PC-3 was greater than 50 µM each time. Besides, the outcome with CWR22R [2] was inactive. Further, in assay [4], the “NKX3.1 protein downregulation (active/not active)” value was “inactive”. Moreover, the “PSA protein decrease (active/not active)” value in assay [5] was “inactive”.
Regarding `CC(=O)O[C@H]1CC[C@@]2(C)C(=CC[C@H]3[C@@H]4C[C@@H](Nc5nc6ccccc6[nH]5)[C@@H](C(C)=O)[C@@]4(C)CC[C@@H]32)C1`, the GI50 with CWR22R [1] is greater than 50 µM; with BJ it was 48.3 µM; in the assay with CWR22R [3] it was 6.2 µM; with VCaP, 20.3 µM; in the assay on LNCaP C4-2 it was 11.9 µM; with PC-3, 29.5 µM. In the assay on CWR22R [2], the outcome was inactive. The “NKX3.1 protein downregulation (active/not active)” value in [4] was “inactive”. The “PSA protein decrease (active/not active)” value in assay [5] was “inactive”.
In the case of `CC(=O)O[C@H]1CC[C@@]2(C)C(=CC[C@@H]3[C@@H]2CC[C@@]2(C)[C@H]3C[C@@H]3C(=O)[C@@]2(C)Nc2nc4cc(Cl)ccc4n23)C1`, the GI50 in the assay on CWR22R [3], in the assay with LNCaP C4-2 and in the assay on PC-3 was greater than 50 µM throughout.
In the case of `CC(=O)O[C@H]1CC[C@@]2(C)C(=CC[C@@H]3[C@@H]2CC[C@]2(C)c4c(C)nc5c(c4C[C@@H]32)c2ccccc2n5C)C1`, the GI50 in the assay with CWR22R [1], in the assay with BJ, in the assay with CWR22R [3], with VCaP, in the assay on LNCaP C4-2 and in the assay on PC-3 was greater than 50 µM each time. For the same molecule, in the assay on CWR22R [2], the result was inactive. For the same molecule, the “NKX3.1 protein downregulation (active/not active)” value in [4] is “inactive”. For the same molecule, the “PSA protein decrease (active/not active)” value in assay [5] was “inactive”.
Turning to `CC(=O)O[C@H]1CC[C@@]2(C)C(=CC[C@H]3[C@@H]4C[C@@H](Nc5nc6ccccc6s5)[C@H](C(C)=O)[C@@]4(C)CC[C@@H]32)C1`, the GI50 was greater than 50 µM with CWR22R [1]; greater than 50 µM in the assay with BJ; 13.2 µM in the assay on CWR22R [3]; greater than 50 µM in the assay on VCaP; 34.1 µM in the assay with LNCaP C4-2; greater than 50 µM in the assay with PC-3. In addition, the result in the assay with CWR22R [2] was inactive. Further, in assay [4], the “NKX3.1 protein downregulation (active/not active)” value is “inactive”. Also, the “PSA protein decrease (active/not active)” value in [5] is “inactive”.
Take `CC(=O)O[C@H]1CC[C@@]2(C)C(=CC[C@@H]3[C@@H]2CC[C@]2(C)c4c(C)nc5nc6cc(C)c(C)cc6n5c4C[C@@H]32)C1`: the GI50 in the assay on CWR22R [1] was greater than 50 µM; in the assay on BJ it was greater than 50 µM; with CWR22R [3] it was 40 µM; in the assay on VCaP it was greater than 50 µM; with LNCaP C4-2, 36.5 µM; in the assay on PC-3, greater than 50 µM. Further, the outcome in the assay on CWR22R [2] was inactive. The “NKX3.1 protein downregulation (active/not active)” value in assay [4] is “inactive”. Moreover, the “PSA protein decrease (active/not active)” value in assay [5] is “inactive”.
Turning to `CC(=O)O[C@H]1CC[C@@]2(C)C(=CC[C@@H]3[C@@H]2CC[C@@]2(C)[C@H]3C[C@@H]3C(=O)[C@@]2(C)Nc2nc4ccc(Cl)cc4n23)C1`, the GI50 in the assay with CWR22R [3], with LNCaP C4-2 and with PC-3 was greater than 50 µM throughout.
